# PubChem BioAssay AID1996
# Conditions: buffer; pH 7.4; 200.0 µM
row,solubility kinetic,SMILES
1,4.6 µg/mL,Cc1cccc(C)c1OCc1cc(C(=O)NCC2CC2)no1
2,> 42.5 µg/mL,CC1(C)CC(NC(=O)c2c(N)no[n+]2[O-])CC(C)(C)N1
3,> 44.3 µg/mL,CCc1c(C)nc(SCC(=O)N2CCCCC2)[nH]c1=O
4,36.5 µg/mL,CCOC(=O)c1sc(-c2cccc(C(F)(F)F)c2)nc1O
5,25.6 µg/mL,COC(=O)c1cc(Cl)c(NC(=O)Cc2ccccc2)cc1OC
6,> 55.3 µg/mL,O=C(CN1CCN(c2ccc(Cl)cc2[N+](=O)[O-])CC1)N1CCOCC1
7,9.7 µg/mL,CC(NC(=O)Cc1ccc(Br)cc1)c1ccccc1 (stereo unspecified)
8,> 31.1 µg/mL,N#C/C(=C\c1cccnc1)c1ccccn1
9,> 47.9 µg/mL,COc1ccc(N2CC(C(=O)NC3=NCCS3)CC2=O)cc1 (stereo unspecified)
10,22.1 µg/mL,COc1ccccc1Nc1nc(C)cc(C)n1
11,7.5 µg/mL,N#CCC(=O)Nc1ccc(C(=O)OCC(=O)NC2CCCc3ccccc32)cc1 (stereo unspecified)
12,> 45.5 µg/mL,CC1CN(C2=NC(=O)/C(=C/c3ccncc3)S2)CC(C)O1 (stereo unspecified)
13,36.5 µg/mL,N#Cc1ccc(Sc2ccccn2)c([N+](=O)[O-])c1
14,2.9 µg/mL,N#Cc1ccsc1NC(=O)c1ccc(Cl)c([N+](=O)[O-])c1
15,26.7 µg/mL,S=c1nccc(-c2ccc(Cl)cc2)[nH]1
16,29.3 µg/mL,O=C(NCC1CC1)Nc1cccc(C(F)(F)F)c1
17,52.5 µg/mL,O=C(CCc1nc(-c2ccccn2)no1)NCc1ccc2c(c1)OCO2
18,> 56.5 µg/mL,NC(CO)(CO)CO.O=C(c1ccccc1)c1ccc2n1CCC2C(=O)O (stereo unspecified)
19,1.3 µg/mL,Fc1ccc(F)c(CNc2ncnc3cc(Cl)ccc23)c1
20,> 62.1 µg/mL,CC(C)[C@H](NC(=O)c1ccco1)C(=O)OCC(=O)c1ccc(Br)s1
21,> 57.1 µg/mL,O=C(c1ccccc1NS(=O)(=O)c1ccc(F)cc1F)N1CCCCC1

row,solubility kinetic,SMILES
1,42.4 µg/mL,CCCCS(=O)(=O)N1CCCC(C(=O)N2CCOCC2)C1 (stereo unspecified)
2,35.8 µg/mL,COc1ccc(C(=O)C(C)OC(=O)c2sc(C)nc2C)cc1 (stereo unspecified)
3,49.7 µg/mL,Cc1cccc(-n2ccnc2CN2CCN(C(C)C)C(CCO)C2)c1 (stereo unspecified)
4,> 36.6 µg/mL,COC(=O)c1nn(-c2ccc(C)cc2)ccc1=O
5,17 µg/mL,COc1ccc(S(=O)(=O)n2cnc3ccccc32)c(C)c1
6,> 42.9 µg/mL,Cc1cccn2c(=O)c(C=O)c(N3CCN(C)CC3)nc12
7,> 51.2 µg/mL,O=C(NC1CC1)C1CCN(C(=O)c2ccc(Cl)cc2Cl)CC1
8,9.9 µg/mL,C=C(C)[C@@H]1CC=C(CN2CCN(Cc3ccccc3)CC2)CC1
9,24.6 µg/mL,O=C(Cc1nc2ccccc2[nH]1)c1ccc(Br)cc1
10,> 48.3 µg/mL,O=C(CN1C(=O)NC2(CCCC2)C1=O)Nc1cccc(Cl)c1
11,> 38.7 µg/mL,Cc1nccn1CC(=O)N/N=C/c1ccccc1O
12,14.3 µg/mL,Fc1ccc(-c2ncc3ccccn23)cc1
13,> 44.7 µg/mL,COc1ccc(C(=O)CCN2CCC(C)CC2)cc1.Cl
14,0.5 µg/mL,Clc1cccc(CNc2nc(-c3cccnc3)nc3ccccc23)c1
15,> 45.9 µg/mL,CN(C)CCN1C(=O)NC(C)(c2ccc([N+](=O)[O-])cc2)C1=O (stereo unspecified)
16,50.2 µg/mL,CC1C(=O)N2CCCc3cc(NC(=O)COc4ccccc4)cc1c32 (stereo unspecified)
17,1.4 µg/mL,Oc1ccc(Nc2nc(-c3ccccc3F)nc3ccccc23)cc1
18,1.8 µg/mL,O=C(CCCOc1ccccc1)NC(=S)Nc1ccccc1
19,5.3 µg/mL,CCOC(=O)c1cc([N+](=O)[O-])sc1NC(=O)CC
20,12.6 µg/mL,COc1ccccc1-n1cnc2cc(NCc3ccccc3O)ccc21
21,< 0.2 µg/mL,CCOc1ccc(NC(=O)Nc2cccc(C)n2)cc1

row,solubility kinetic,SMILES
1,8.7 µg/mL,Cc1ccc(Cl)c(OCC(=O)OCC(=O)c2ccc[nH]2)c1
2,1.2 µg/mL,COc1ccc(Nc2c(-c3ccco3)nc3cccc(C)n23)cc1
3,60.7 µg/mL,CCC(C)(C)NC(=O)CN(C(=O)c1ccc(N2CCCC2)nc1)c1ccc(F)cc1
4,5.8 µg/mL,Cc1cccc(C(=O)OCC(=O)NC(=O)Cc2ccccc2)c1O
5,> 41.6 µg/mL,COc1ccc(/C=C/C(=O)N[C@H](C(=O)O)C(C)C)cc1
6,> 37.2 µg/mL,Cl.O=C(NC1CCCCC1)N1CCNCC1
7,> 55.4 µg/mL,CC(Oc1ccc(Br)cc1)C(=O)NCCCN1CCCC1=O (stereo unspecified)
8,0.5 µg/mL,Cc1cccc(NC(=O)c2ccccc2NC(=O)c2ccco2)c1
9,13.1 µg/mL,CCOc1nc2ccccc2cc1/C=C/C(=O)O
10,37.3 µg/mL,Cc1ccccc1NC(=O)c1ccc2nccnc2c1
11,> 58 µg/mL,CN1CCN(c2nc3c(c(=O)n(C)c(=O)n3C)n2Cc2ccccc2F)CC1
12,> 43.3 µg/mL,CC1=C(C(=O)OC(C)C)C(c2ccccc2)NC(=O)N1C (stereo unspecified)
13,31.6 µg/mL,Cc1cccc(NS(=O)(=O)c2ccc(Cl)cc2)n1
14,3.1 µg/mL,O=C(Nc1ccc(Cl)cc1)c1ccc2ncsc2c1
15,30.2 µg/mL,c1ccc2c(Cn3ccnc3)cccc2c1
16,> 57.1 µg/mL,COCCN(CC(=O)Nc1cccc(C)c1C)C(=O)C1(c2ccccc2)CC1
17,8.2 µg/mL,Cc1ccc(NC(=O)CN2C(=S)NC(C)(C)CC2C)cc1Cl (stereo unspecified)
18,0.5 µg/mL,CN1CCSc2ccc(C(=O)Nc3ccc(Cl)cc3)cc21
19,< 0.2 µg/mL,N#CCSc1nc(-c2ccccc2)nc2ccccc12
